Laboratory results reported in patent publication US10280159B2 (AbbVie Deutschland GmbH & Co. KG, priority 2015, dated 2019).

Experiments:
Format in all cases: cell-based
human S1PR3 = molecular target: T1, human S1PR3 (Homo sapiens, UniProt Q99500); assay: Intracellular Ca2+ release (FLIPR) agonist potency, S1P3; conditions: recombinant CHO-K1 cells expressing human S1PR3, aequorin, Gq/i5; Calcium 5 FLIPR; read-out: S1P3 EC50
T1 construct: host or cells: CHO-K1
Procedure: Agonistic activity was measured using the method described below.
Intracellular Ca^2+ Release
Agonist potency and intrinsic activity was assessed by measurement of intracellular Ca^2+ release. Recombinant CHO-K1 cells (Euroscreen, Brussels, Belgium) expressing human S1PR5, S1PR1, S1PR3 or S1PR4 receptors, aequorin, and GTP binding protein Gq/i5 were cultured using a medium containing nutrient mixture F-12 Ham (Sigma-Aldrich) with 10% FBS, and 100 μg/mL gentamicin and equilibrated at 5% CO2.
Phospho-fingolimod was used as positive control. Antagonists were pre-incubated for 10 min with cells before addition of the agonist (phospho-fingolimod at EC80). Measurements were performed using a fluorometric imaging plate reader FLIPR®tetra (Molecular Devices). Agonist at the human S1P receptors were characterized by deducing EC50 (potency) values from a nonlinear fit to the measured fluorescence raw data after normalization to the reference agonist (phospho-fingolimod) curve.

human S1PR5 = molecular target: T2, human S1PR5 (Homo sapiens, UniProt Q9H228); assay: Intracellular Ca2+ release (FLIPR) agonist potency, S1P5; conditions: recombinant CHO-K1 cells expressing human S1PR5, aequorin, Gq/i5; Calcium 5 FLIPR; read-out: S1P5 EC50 range
T2 construct: host or cells: CHO-K1
T2 sequence (Q9H228 whole entry): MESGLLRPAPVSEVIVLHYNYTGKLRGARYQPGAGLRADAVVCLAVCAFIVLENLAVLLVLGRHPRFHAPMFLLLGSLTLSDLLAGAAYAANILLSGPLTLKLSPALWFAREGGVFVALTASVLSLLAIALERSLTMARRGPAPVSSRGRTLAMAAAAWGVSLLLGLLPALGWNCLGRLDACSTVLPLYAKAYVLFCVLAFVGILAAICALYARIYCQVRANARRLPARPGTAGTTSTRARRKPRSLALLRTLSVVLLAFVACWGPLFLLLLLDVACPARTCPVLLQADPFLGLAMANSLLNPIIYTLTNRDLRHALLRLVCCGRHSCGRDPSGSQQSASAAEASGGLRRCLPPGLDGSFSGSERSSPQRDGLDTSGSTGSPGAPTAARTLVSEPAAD
In short: (§1)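 Agonist potency from intracellular Ca²⁺ release measured by FLIPR, with EC50 fitted after normalization to phospho-fingolimod curves. Recombinant CHO-K1 lines co-expressing the respective human S1P receptor, aequorin and Gq/i5.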

human S1PR1 = molecular target: T3, human S1PR1 (Homo sapiens, UniProt P21453); assay: Intracellular Ca2+ release (FLIPR) agonist potency, S1P1; conditions: recombinant CHO-K1 cells expressing human S1PR1, aequorin, Gq/i5; Calcium 5 FLIPR; read-out: S1P1 EC50
T3 construct: host or cells: CHO-K1
T3 sequence (P21453 whole entry): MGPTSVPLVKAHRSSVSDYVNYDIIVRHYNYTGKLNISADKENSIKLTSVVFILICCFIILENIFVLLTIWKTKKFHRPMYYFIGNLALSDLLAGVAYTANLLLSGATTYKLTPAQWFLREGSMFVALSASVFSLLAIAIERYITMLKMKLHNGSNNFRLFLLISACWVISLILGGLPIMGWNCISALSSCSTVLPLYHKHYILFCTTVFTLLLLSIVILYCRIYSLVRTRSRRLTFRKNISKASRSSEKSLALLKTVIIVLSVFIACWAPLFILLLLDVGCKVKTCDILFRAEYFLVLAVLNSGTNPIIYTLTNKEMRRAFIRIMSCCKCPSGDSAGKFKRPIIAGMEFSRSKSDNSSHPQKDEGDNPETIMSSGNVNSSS
In short: as §1

human S1PR4 = molecular target: T4, human S1PR4 (Homo sapiens, UniProt O95977); assay: Intracellular Ca2+ release (FLIPR) agonist potency, S1P4; conditions: recombinant CHO-K1 cells expressing human S1PR4, aequorin, Gq/i5; Calcium 5 FLIPR; read-out: S1P4 EC50
T4 construct: host or cells: CHO-K1
T4 sequence (O95977 1-384): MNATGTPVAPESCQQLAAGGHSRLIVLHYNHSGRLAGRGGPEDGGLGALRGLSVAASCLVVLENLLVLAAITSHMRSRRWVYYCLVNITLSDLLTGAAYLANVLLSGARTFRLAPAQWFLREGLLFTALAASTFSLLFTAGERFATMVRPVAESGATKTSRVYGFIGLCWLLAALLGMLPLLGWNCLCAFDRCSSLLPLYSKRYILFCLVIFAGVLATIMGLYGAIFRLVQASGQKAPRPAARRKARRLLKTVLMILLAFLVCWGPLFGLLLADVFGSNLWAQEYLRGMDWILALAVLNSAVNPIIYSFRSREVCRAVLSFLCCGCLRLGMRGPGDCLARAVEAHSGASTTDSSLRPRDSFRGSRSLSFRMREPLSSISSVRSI
In short: as §1

T1 sequence (Q99500 whole entry): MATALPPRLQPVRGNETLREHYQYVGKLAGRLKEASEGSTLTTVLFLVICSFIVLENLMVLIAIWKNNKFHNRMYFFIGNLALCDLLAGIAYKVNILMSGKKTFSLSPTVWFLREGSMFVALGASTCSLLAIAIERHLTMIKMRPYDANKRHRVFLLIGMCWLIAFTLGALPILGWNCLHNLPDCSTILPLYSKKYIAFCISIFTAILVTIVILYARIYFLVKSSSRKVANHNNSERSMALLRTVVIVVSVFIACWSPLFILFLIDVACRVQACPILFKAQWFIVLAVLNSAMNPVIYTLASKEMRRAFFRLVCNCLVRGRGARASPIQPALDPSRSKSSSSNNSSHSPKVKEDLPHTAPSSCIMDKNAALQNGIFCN

SMILES	EC50 (human S1PR3)	EC50 (human S1PR5)	EC50 (human S1PR1)	EC50 (human S1PR4)
O=C(O)C1CCN(C2COc3cc(OCc4c(Cl)cccc4Cl)ccc3C2)C1 (single isomer, unassigned) [Compound 50, 1-(7-((2,6-dichlorobenzyl)oxy)chroman-3-yl)pyrrolidine-3-carboxylic acid]	> 1 µM	< 0.01 µM	> 1 µM	> 1 µM
O=C(O)C1CN(C2COc3cc(OCc4c(Cl)cccc4Cl)ccc3C2)C1 (centres unmarked) [Compound 1, 1-(7-((2,6-dichlorobenzyl)oxy)chroman-3-yl)azetidine-3-carboxylic acid]	> 1 µM	< 0.01 µM	> 1 µM	> 1 µM
O=C(O)C1CN(C2CCc3cc(OCc4c(Cl)cccc4Cl)ccc3C2)C1 (centres unmarked) [Compound 4, 1-(6-((2,6-dichlorobenzyl)oxy)-1,2,3,4-tetrahydronaphthalen-2-yl)azetidine-3-carboxylic acid]	> 1 µM	< 0.01 µM	> 1 µM	
CCc1cccc(Cl)c1COc1ccc2c(c1)CCC(NC1(C(=O)O)CC1)C2 (centres unmarked) [Compound 5, 1-((6-((2-chloro-6-ethylbenzyl)oxy)-1,2,3,4-tetrahydronaphthalen-2-yl)amino)cyclopropanecarboxylic acid]	> 1 µM	< 0.01 µM	> 1 µM	< 1 µM
CCc1cccc(Cl)c1COc1ccc2c(c1)CCC(NCCC(=O)O)C2 (centres unmarked) [Compound 6, 3-((6-((2-chloro-6-ethylbenzyl)oxy)-1,2,3,4-tetrahydronaphthalen-2-yl)amino)propanoic acid]	> 1 µM	< 0.01 µM	< 1 µM	
O=C(O)CCNC1CCc2cc(OCc3ccccc3)ccc2C1 (centres unmarked) [Compound 7, 3-((6-(benzyloxy)-1,2,3,4-tetrahydronaphthalen-2-yl)amino)propanoic acid]	> 1 µM	0.01 to 0.1 µM	> 1 µM	
O=C(O)CCNC1CCc2cc(OCc3ccccc3Cl)ccc2C1 (centres unmarked) [Compound 8, 3-((6-((2-chlorobenzyl)oxy)-1,2,3,4-tetrahydronaphthalen-2-yl)amino)propanoic acid]	> 1 µM	< 0.01 µM	> 1 µM	< 1 µM
O=C(O)CCNC1CCc2cc(OCc3c(Cl)cccc3Cl)ccc2C1 (centres unmarked) [Compound 9, 3-((6-((2,6-dichlorobenzyl)oxy)-1,2,3,4-tetrahydronaphthalen-2-yl)amino)propanoic acid]	> 1 µM	< 0.01 µM	> 1 µM	
O=C(O)CCNC1CCc2ccc(OCc3c(Cl)cccc3Cl)cc2C1 (centres unmarked) [Compound 10, 3-((7-((2,6-dichlorobenzyl)oxy)-1,2,3,4-tetrahydronaphthalen-2-yl)amino)propanoic acid]	> 1 µM	1 to 10 µM	> 1 µM	
O=C(O)CCNC1CCc2cc(OCc3ccc(Cl)cc3)ccc2C1 (centres unmarked) [Compound 11, 3-((6-((4-chlorobenzyl)oxy)-1,2,3,4-tetrahydronaphthalen-2-yl)amino) propanoic acid]	> 1 µM	1 to 10 µM	> 1 µM	
O=C(O)CCNC1CCc2cc(C#Cc3c(Cl)cccc3Cl)ccc2C1 (centres unmarked) [Compound 12, 3-((6-((2,6-dichlorophenyl)ethynyl)-1,2,3,4-tetrahydronaphthalen-2-yl)amino)propanoic acid]	> 1 µM	< 0.01 µM	> 1 µM	< 1 µM
CN(CCC(=O)O)C1CCc2cc(C#Cc3c(Cl)cccc3Cl)ccc2C1 (centres unmarked) [Compound 13, 3-((6-((2,6-dichlorophenyl)ethynyl)-1,2,3,4-tetrahydronaphthalen-2-yl)(methyl)amino)propanoic acid]	> 1 µM	< 0.01 µM	> 1 µM	< 1 µM
O=C(O)CCNC1CCc2cc(C#Cc3cc(F)cc(F)c3)ccc2C1 (centres unmarked) [Compound 14, 3-((6-((3,5-difluorophenyl)ethynyl)-1,2,3,4-tetrahydronaphthalen-2-yl)amino)propanoic acid]	> 1 µM	< 0.01 µM	> 1 µM	< 1 µM
CN(CCC(=O)O)C1CCc2cc(C#Cc3cc(F)cc(F)c3)ccc2C1 (centres unmarked) [Compound 15, 3-((6-((3,5-difluorophenyl)ethynyl)-1,2,3,4-tetrahydronaphthalen-2-yl)(methyl)amino)propanoic acid]	> 1 µM	< 0.01 µM	> 1 µM	< 1 µM
CN(CCC(=O)O)C1CCc2cc(OCc3ccccc3Cl)ccc2C1 (centres unmarked) [Compound 16, 3-((6-((2-chlorobenzyl)oxy)-1,2,3,4-tetrahydronaphthalen-2-yl)(methyl)amino)propanoic acid]	> 1 µM	0.1 to 1 µM	> 1 µM	< 1 µM
CCc1cccc(Cl)c1COc1ccc2c(c1)CCC(N(C)CCC(=O)O)C2 (centres unmarked) [Compound 17, 3-((6-((2-chloro-6-ethylbenzyl)oxy)-1,2,3,4-tetrahydronaphthalen-2-yl)(methyl)amino)propanoic acid]	> 1 µM	< 0.01 µM	< 1 µM	< 1 µM
O=C(O)CCNC1CCc2cc(/C=C/c3c(Cl)cccc3Cl)ccc2C1 (centres unmarked) [Compound 18, (E)-3-((6-(2,6-dichlorostyryl)-1,2,3,4-tetrahydronaphthalen-2-yl)amino)-propanoic acid]	> 1 µM	< 0.01 µM	< 1 µM	< 1 µM
O=C(O)CCNC1CCc2cc(/C=C/c3ccccc3)ccc2C1 (centres unmarked) [Compound 19, (E)-3-((6-styryl-1,2,3,4-tetrahydronaphthalen-2-yl)amino)propanoic acid]	> 1 µM	0.01 to 0.1 µM	> 1 µM	< 1 µM
O=C(O)CCNC1CCc2cc(/C=C/c3cccc(Cl)c3)ccc2C1 (centres unmarked) [Compound 20, (E)-3-((6-(3-chlorostyryl)-1,2,3,4-tetrahydronaphthalen-2-yl)amino)-propanoic acid]	> 1 µM	< 0.01 µM	> 1 µM	< 1 µM
O=C(O)CCNC1CCc2cc(OCc3c(Cl)cccc3C3CC3)ccc2C1 (centres unmarked) [Compound 21, 3-((6-((2-chloro-6-cyclopropylbenzyl)oxy)-1,2,3,4-tetrahydronaphthalen-2-yl)amino)propanoic acid]	> 1 µM	1 to 10 µM	> 1 µM	> 1 µM
C=C(CN(Cc1c(Cl)cccc1CC)C1CCc2cc(OCc3c(Cl)cccc3CC)ccc2C1)C(=O)OC (centres unmarked) [Compound 22, Methyl 2-(((2-chloro-6-ethylbenzyl)(6-((2-chloro-6-ethylbenzyl)oxy)-1,2,3,4-tetrahydronaphthalen-2-yl)amino)methyl)acrylate]	> 1 µM	1 to 10 µM	> 1 µM	> 1 µM
CCc1cccc(Cl)c1COc1ccc2c(c1)OCC(N1CC(C(=O)O)C1)C2 (centres unmarked) [Compound 23, 1-(7-((2-chloro-6-ethylbenzyl)oxy)chroman-3-yl)azetidine-3-carboxylic acid]	> 1 µM	< 0.01 µM	> 1 µM	< 1 µM
O=C(O)C1CN(C2COc3cc(OCc4cccc(Cl)c4)ccc3C2)C1 (centres unmarked) [Compound 24, 1-(7-((3-chlorobenzyl)oxy)chroman-3-yl)azetidine-3-carboxylic acid]	> 1 µM	1 to 10 µM	> 1 µM	> 1 µM
O=C(O)C1CN(C2COc3cc(OCC4CC4)ccc3C2)C1 (centres unmarked) [Compound 231, 1-[7-(cyclopropylmethoxy)chroman-3-yl]azetidine-3-carboxylic acid]		1 to 10 µM	> 1 µM	> 1 µM
CCc1cccc(Cl)c1COc1ccc2c(c1)OCC(OCC(=O)O)C2 (centres unmarked) [Compound 233, ((7-((2-chloro-6-ethylbenzyl)oxy)chroman-3-yl)oxy)acetic acid]		< 0.01 µM	> 1 µM	> 1 µM
O=C(O)COC1COc2cc(OCc3c(F)ccc(Cl)c3F)ccc2C1 (centres unmarked) [Compound 234, 2-((7-((3-chloro-2,6-difluorobenzyl)oxy)chroman-3-yl)oxy)acetic acid]		1 to 10 µM	> 1 µM	> 1 µM
O=C(O)CNC1COc2cc(-c3ccc(OCc4ccccc4)cc3)ccc2C1 (centres unmarked) [Compound 237, 2-((7-(4-(benzyloxy)phenyl)chroman-3-yl)amino)acetic acid]		< 0.01 µM	> 1 µM	> 1 µM
